Values joined by “and” are separate entries in the source; they are usually repeats but may differ in a detail not shown here. Equal entries are not always repeated.
How the values were obtained:
[1] = tested on: PM1 cells; assay: Inhibition of FITC-labeled AAC uptake by SDF-1α, flow cytometry; format: cell-based; details: for MFI of FITC-AAC uptake: background MFI of 10
Procedure: Following 20 minutes at room temperature the cells were washed twice with PBS and analyzed by flow cytometry.
Following 30 minutes of incubation, cells were washed with ice-cold wash buffer and analyzed by flow cytometry as described above.

[2] = tested on: U38, PM1, H9 cells and PBMC; assay: Cellular uptake of AAC-FITC fluorescent probes, fluorescence microscopy; format: cell-based; details: 0.5 μM, 10 minutes of incubation
Procedure: Images were obtained using a Zeiss Axiophot microscope.
Cellular uptake using AAC fluorescent probes—U38, PM1, H9 cells and PBMC(10^5) were incubated for 20 minutes at room temperature in 100 μl RPMI 1640 medium (Gibco-BRL, Life-Technologies, UK) including AAC-FITC derivatives as indicated at a final concentration of 0.5 μM. Cells were washed twice, resuspended in 100 μl medium and analyzed with a Zeiss Axiophot fluorescent microscope.

[3] = tested on: MT-2 cells; assay: Cellular uptake competition of AACs with NeoR6-FITC, flow cytometry; format: cell-based; details: 100 fold excess of non-labeled AAC over 0.5 μM NeoR6-FITC
Procedure: Following 15 minutes of incubation at room temperature, the cells were washed twice with ice-cold PBS and fixed in PBS containing 1% paraformaldehyde. Fluorescence was analyzed using flow cytometry.
After 5 or 15 min of incubation at room temperature, the cells were washed twice with ice-cold PBS and fixed in PBS containing 1% paraformaldehyde. The fluorescence was then analyzed by flow cytometry (FACScan, Becton Dickinson Imunocytometry Systems, San Jose, Calif., USA). For each sample 10,000 events were acquired. Data were analyzed and processed.

[4] = target: T1, CXCR4 (Homo sapiens, UniProt P61073); assay: Inhibition of anti-CXCR4 mAb 12G5 binding to cells, flow cytometry; format: cell-based; details: for reduction of 12G5 mAb binding to the cells: PM1 cells, 30 min at 4° C.
T1 construct: endogenous in cells; host or cells: PM1 cells and PBMC
T1 sequence (P61073 whole entry): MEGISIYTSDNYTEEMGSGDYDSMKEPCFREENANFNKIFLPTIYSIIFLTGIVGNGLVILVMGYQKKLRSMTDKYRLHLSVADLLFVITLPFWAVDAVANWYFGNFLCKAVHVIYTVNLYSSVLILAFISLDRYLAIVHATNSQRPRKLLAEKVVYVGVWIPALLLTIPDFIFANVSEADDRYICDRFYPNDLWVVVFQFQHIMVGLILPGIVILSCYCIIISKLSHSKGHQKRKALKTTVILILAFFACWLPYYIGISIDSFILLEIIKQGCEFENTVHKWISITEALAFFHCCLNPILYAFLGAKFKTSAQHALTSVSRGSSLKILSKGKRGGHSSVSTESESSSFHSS
Procedure: FIGS. 11a–d are graphs depicting the binding of AACs to CXCR4 in the presence of anti CXCR4 antibody (12G5). PM1 cells were incubated with PE-conjugated isotype control mAb, PE-anti CXCR4 conjugated mAb (12G5) alone, or in the presence of the indicated AACs for 30 min at 4° C. The cells were then washed twice with PBS and analyzed by flow cytometry. The MFI values are shown in parenthesis.
Interaction of AACs with CXCR4 was determined by flow cytometry (FACScan, Becton Dickinson) as described recently (Litovchick et al., 2001, supra). Briefly, 0.5×10^6 cells were washed in ice-cold PBS containing 0.1% sodium azide (wash buffer) and incubated at 4° C. with anti-CXCR4 mAb, 12G5 (PharMingen, San Diego, Calif.) conjugated to phycoerithrine (PE), in the absence or presence of different concentrations of the AACs. After 30 min of incubation, the cells were washed with ice-cold wash buffer and fixed in PBS containing 1% paraformaldehyde. Non-specific fluorescence was assessed by using isotype-matched control. For each sample 10,000 events were acquired. Data were analyzed and processed using CellQuest™ software (Becton Dickinson).

[5] = target: RRE IIB RNA; assay: Fluorescence anisotropy: RhdRev binding and AAC competition for RRE IIB RNA; design: species or system HIV-1
[6] = target: TAR RNA; assay: Fluorescence anisotropy: RhdRev binding and AAC competition for TAR RNA; design: species or system HIV-1
[7] = tested on: cMAGI cells; assay: Competition between FITC-labelled AACs and RANTES; format: cell-based; details: 2.5 mM RANTES
Procedure: Competition between FITC labelled AACs (1 mM) and RANTES (2.5 mM, Pepro Tech Inc., New Jersey, USA) was effected in 2×10^5 cMAGI cells. Following 30 min of incubation, cells were washed with ice-cold wash buffer and analysed by flow cytometry as described above.

[8] = tested on: TAR; details: in contrast to Tat peptide (R52) or AACs; cited from earlier work
[9] = tested on: TAR or RRE RNAs; details: cited from earlier work
[10] = tested on: HIV-1 clade C; assay: Replication of HIV-1 clade C in MT2 cells, tetrazolium viability; format: cell-based; details: present throughout infection or only the first two hours; NeoR6 2–20 μM, R3G 5–40 μM
Procedure: Infected cells were washed, seeded in 96-well plate (5×10^4 cells per well) and incubated for 4 days in the absence or presence of various drug concentrations, until syncytia were observed (>25% ctu). Cell viability was measured by tetrazolium-based colorimetric method. The results shown are mean ±standard deviation of triplicates. Circles denote the presence of AACs during the infection step and after the cells were washed; Squares denote the presence of AACs only during the first 2 hours prior to washing.

[11] = tested on: NeoR6 resistant HIV-1 isolates; assay: Inhibition of NeoR6 resistant HIV-1 isolates in MT2 or cMAGI cells; format: cell-based
Source text: (§1) The cMAGI assay is based on the ability of HIV-1 TAT to transactivate the expression of an integrated β-galactosidase reporter gene driven by the HIV-LTR [Chackerian, B. et al., 1997. J Virol. 71: 3932–3939; Collins, K. B. et al., 2000. Nat. Med. 6: 475–479]. The β-galactosidase reporter has been modified to remain localized in the nucleus where it can be detected with the X-gal substrate as an intense nuclear stain within a few days of infection. The X-gal substrate used was 5-bromo-4-chloro-3-indoyl-beta-D-galactopyranoside. HIV1IIIB was propagated by subculture in MT2 as described previously [Litovchick (2001) Supra]. Aliquots of cell-free culture supernatants were used as viral inoculum. […] The cytopathic effects of the viral infection of MT2 cells were analyzed by microscopic assessment of syncytium formation. These latter data were obtained by analysis of duplicate samples by two independent observers. HIV-1 infection of cMAGI cells was determined by counting the number of HIV-1 infected cells (stained blue).
Culture fluids were replaced […] weekly with fresh medium containing an appropriate drug concentration. […] From the final cycle of each experiment the resistant virus was propagated as described above.

[12] = target: T2, CD4 (Homo sapiens, UniProt P01730); details: PHA stimulated peripheral blood lymphocytes; cited from earlier work
T2 construct: in PHA stimulated peripheral blood lymphocytes (PBL); host or cells: PHA stimulated peripheral blood lymphocytes (PBL)

[13] = target: T3, CCR5 (Homo sapiens, UniProt P51681); details: PHA stimulated peripheral blood lymphocytes; cited from earlier work
T3 construct: in PHA stimulated peripheral blood lymphocytes (PBL); host or cells: PHA stimulated peripheral blood lymphocytes (PBL)
T3 sequence (P51681 whole entry): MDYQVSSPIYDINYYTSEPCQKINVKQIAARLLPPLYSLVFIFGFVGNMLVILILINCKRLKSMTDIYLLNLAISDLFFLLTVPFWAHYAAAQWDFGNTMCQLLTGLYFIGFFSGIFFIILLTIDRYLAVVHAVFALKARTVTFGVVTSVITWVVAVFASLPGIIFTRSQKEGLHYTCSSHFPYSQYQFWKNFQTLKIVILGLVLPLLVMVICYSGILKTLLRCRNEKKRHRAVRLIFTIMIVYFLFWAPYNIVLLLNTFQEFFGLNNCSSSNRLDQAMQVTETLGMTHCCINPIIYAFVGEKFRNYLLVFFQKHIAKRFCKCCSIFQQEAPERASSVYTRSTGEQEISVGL

[14] = tested on: lymphocytes, PBMC and neurons; details: cited from earlier work
[15] = tested on: HIV-1IIIB wild type; assay: Inhibition of HIV-1IIIB wild type in MT2 or cMAGI cells; format: cell-based; details: HIV-1IIIB wt; mean and standard deviation of three separate experiments; read-out: EC50, Wild-type
Source text: as §1

Structure (SMILES): CC(=O)O.N=C(N)NCCCC(N)C(=O)NCC1OC(OC2C(NC(=O)C(N)CCCNC(=N)N)CC(NC(=O)C(N)CCCNC(=N)N)C(O)C2O)C(NC(=O)C(N)CCCNC(=N)N)C(O)C1O (stereo not drawn) [NeamR4, Neamine tetra-arginine conjugate]
- MFI of FITC-AAC uptake ([1]; 62.5 nM SDF-1α): 56
- inhibition of cell uptake by SDF-1α ([1]; 125 nM SDF-1α, PM1 cells): about 50%
- MFI of FITC-AAC uptake ([1]; 125 nM SDF-1α): 52
- MFI of FITC-AAC uptake ([1]; 250 nM SDF-1α): 50
- MFI of FITC-AAC uptake ([1]; without SDF-1α): 96
- cellular uptake of FITC-labeled AAC by PM1 cells [2]: uptaken by PM1 cells
- inhibition of NeoR6-FITC uptake, less affinity than NeoR6 [3]: about 50%
- reduction of 12G5 mAb binding to the cells ([4]; 10 μM AAC): 60%
- inhibition of mAb 12G5 or SDF-1α binding to CXCR4, % of the NeoR6 activity ([4]; in comparison to NeoR6): 70%
- Kd ([5]; competition of AACs with RhdRev (10 nM) for RRE IIB RNA (20 nM) binding, 85 mM NaCl): 55 nM and 54.7 nM
- IC50 ([5]; competition of AACs with RhdRev for RRE IIB RNA binding): 119 ± 13.5 nM
- Kd ([6]; competition of AACs with RhdRev (10 nM) for TAR RNA (20 nM) binding, 85 mM NaCl): 30 nM and 30.1 nM
- IC50 ([6]; competition of AACs with RhdRev for TAR RNA binding): 82.8 ± 7.7 nM
- folds less active / times weaker than NeoR6, TAR binding ([6]; ratio of KD to that of NeoR6): 6
- competition with RhdRev for TAR RNA binding (in words) ([6]; up to 20 μM of AAC): efficiently competed
- effect of RANTES on uptake of FITC derivative [7]: did not affect uptake

Structure (SMILES): N=C(N)NCCCC(=O)NCC1OC(OC2C(NC(=O)CCCNC(=N)N)CC(NC(=O)CCCNC(=N)N)C(OC3OC(CO)C(O)C(NC(=O)CCCNC(=N)N)C3O)C2O)C(O)C(O)C1O (stereo not drawn) [GB4K, kanamycine A conjugated to four γ-guadinno butiric acid]
- protection of the bulge region of TAR from RNase A cleavage [8]: cannot protect the bulge region of TAR from RNase A cleavage
- affinity to TAR or RRE RNAs (in words) [9]: very low affinity

Structure (SMILES): CNC(C)C1CCC(NC(=O)C(N)CCCNC(=N)N)C(OC2C(NC(=O)C(N)CCCNC(=N)N)CC(NC(=O)C(N)CCCNC(=N)N)C(OC3OCC(C)(O)C(NC)C3O)C2O)O1 (stereo not drawn) [R3G, tri-arginine gentamycin C1 conjugate, reference compound]
- inhibition of viral proliferation (in words) [10]: could inhibit viral proliferation
- EC50 ([11]; NeoR6 resistant isolates after 25 passages, mean and standard deviation of three separate experiments, read-out: EC50, NeoR6RES): 21000 ± 8800 nM
- times more resistant than the wild type virus ([11]; NeoR6 resistant isolates, following 25 passages): ~5
- reduction of 12G5 mAb binding to the cells ([4]; 10 μM AAC): 84%
- median fluorescence intensity (MFI) of PE-12G5 in presence of AAC ([4]; 10 μM AAC, mAb alone 451, isotype control 30): 89
- inhibition of binding of anti CD4 antibody (Leu 3a) [12]: neither R3G nor R4K or NeoR6 inhibit the binding
- inhibition of binding of 2D7, a mAb directed to CCR5 [13]: neither R3G nor R4K or NeoR6 inhibit the binding
- accumulation in cells [14]: accumulate in different cell types
- EC50 [15]: 4100 ± 2400 nM

From patent US7160992B2, “Amino-modified polysaccharides and methods of generating and using same” (Yeda Research and Development Co., Ltd., priority 2003, dated 2007)
